The results in this text go back to US9029337B2, “Modulation of factor 7 expression” (Isis Pharmaceuticals, Inc., priority 2007, dated 2015).

Strand notation (5' to 3'): a small letter for the sugar, then the base; units joined by * are phosphorothioate-linked, units joined directly phosphodiester-linked; [ ] holds rarer units or linkages, { } end groups; capitals alone tell only the bases. e = 2'-O-(2-methoxyethyl) (MOE); [5mC] = 5-methylcytosine; d = 2'-deoxy (DNA)

The test system of data set [1] is BALB/c mice. The experiment in a line: Tail bleeding assay. To be noted: mouse, in vivo. Format: in vivo, mouse. The procedure: Mice not receiving treatment with FeCl3 solution were evaluated in a tail bleeding chamber. Mice were placed into the bleeding chamber two days after the final treatment of ISIS 403102 or PBS. Mice were anesthetized in the chamber with isofluorane and a small piece of tail (approximately 4 mm from the tip) was cut with sterile scissors. The cut tail was immediately placed in a 15 mL Falcon tube filled with approximately 10 mL of 0.9% NaCl buffer solution warmed to 37° C. The blood was collected over the course of 40 minutes. The saline filled tubes were weighed both before and after bleeding.
Tail-bleeding was measured to observe whether treatment with ISIS 403102 or warfarin causes internal hemorrhage in mice. ISIS 403102 and warfarin (Coumadin®) were evaluated in the tail bleeding assay. Six groups of BALB/c mice were treated with 1.25 mg/kg, 2.5 mg/kg, 5 mg/kg, 10 mg/kg, 20 mg/kg, or 40 mg/kg of ISIS 403102, administered subcutaneously twice a week for 3 weeks. An additional 6 groups of BALB/c mice were treated with 0.5 mg/kg, 1 mg/kg, 2 mg/kg, 3 mg/kg, 4 mg/kg, and 5 mg/kg of warfarin, administered intraperioneally daily for 6 days. A separate control group of BALB/c mice was treated with PBS, administered subcutaneously twice a week for 3 weeks.
Two days after the final treatment of ISIS 403102, warfarin, or PBS, mice were placed in a tail bleeding chamber. Mice were anesthetized in the chamber with isofluorane and a small piece of tail (approximately 4 mm from the tip) was cut with sterile scissors. The cut tail was immediately placed in a 15 mL Falcon tube filled with approximately 10 mL of 0.9% NaCl buffer solution warmed to 37° C. The blood was collected over the course of 40 minutes. The saline filled tubes were weighed both before and after bleeding.
ISIS 403102 and Apixaban were evaluated in BALB/c mice. In a first group of BALB/c mice, 40 mg/kg of ISIS 403102 was administered subcutaneously twice a week for 3 weeks. An additional 3 groups of BALB/c mice were treated with 5 mg/kg and 10 mg/kg of Apixaban, administered in a single intraperitoneal dose, and 10 mg/kg of Apixaban administered as a single subcutaneous dose. A control group of BALB/c mice was treated with PBS, administered subcutaneously twice a week for 3 weeks.
Two days after the final treatment of ISIS 403102 or PBS, mice were placed in a tail bleeding chamber. Mice from the groups treated with Apixaban were analyzed 30 minutes after the single dose. Mice were anesthetized in the chamber with isofluorane and a small piece of tail (approximately 4 mm from the tip) was cut with sterile scissors. The cut tail was immediately placed in a 15 mL Falcon tube filled with approximately 10 mL of 0.9% NaCl buffer solution warmed to 37° C. The blood was collected over the course of 40 minutes. The saline filled tubes were weighed before and after bleeding.

Data set [2] deals with human Factor 7 mRNA. Put plainly: Antisense inhibition of human Factor 7 mRNA in HepB3 cells, 50 nM antisense oligonucleotide, lipofectin. Format: cell-based. To be noted: gapmers targeted to nucleobases 4868 to 4899 of SEQ ID NO: 1, Table 8. The essentials: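 4,000 cells/well; ~24 h exposure; RNA isolated; probe set RTS 2927; normalised to RIBOGREEN® total RNA; % inhibition vs untreated.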

Data set [3] concerns human Factor 7 mRNA. The experiment in a line: Dose-dependent antisense inhibition of human Factor 7 in HepB3 cells, lipofectin. To be noted: HepB3 cells, approx. 16 hours (Table 14). The data set is classed as cell-based. The method, boiled down:
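HepB3 cells (4,000/well) lipofectin-transfected with antisense oligonucleotide at 3.125 or 6.25 up to 100 nM for ~16 h. Factor 7 mRNA measured by real-time RT-PCR with primer probe set RTS 2927, adjusted to RIBOGREEN total RNA; expressed as percent inhibition versus untreated control cells.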

For data set [4], the system named is human Factor 7 mRNA. The experiment in a line: Dose-dependent antisense inhibition of human Factor 7 in HepB3 cells, electroporation. Format: cell-based. The essentials:
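HepB3 cells, 20,000/well, electroporated with gapmers at 3.125–100 μM; about 16 h treatment. Factor 7 mRNA by qRT-PCR with primer probe set RTS 2927, normalized to RIBOGREEN total RNA; percent inhibition versus untreated cells.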

The mark [5] stands for this setting: 3.125 μM, approx. 16 hours (Table 15, Example 7).
The mark [6] stands for this setting: 3.125 μM, approx. 16 hours (Table 16, Example 8 confirmation).
The mark [7] stands for this setting: 6.25 μM, approx. 16 hours (Table 15, Example 7).
Setting [8] is: 6.25 μM, approx. 16 hours (Table 16, Example 8 confirmation).
Where [9] appears, read: 12.5 μM, approx. 16 hours (Table 15, Example 7).
Setting [10] is: 12.5 μM, approx. 16 hours (Table 16, Example 8 confirmation).
[11] abbreviates: 25 μM, approx. 16 hours (Table 15, Example 7).
Where [12] appears, read: 25 μM, approx. 16 hours (Table 16, Example 8 confirmation).
Setting [13] is: 50 μM, approx. 16 hours (Table 15, Example 7).
Where [14] appears, read: 50 μM, approx. 16 hours (Table 16, Example 8 confirmation).
[15] abbreviates: 100 μM, approx. 16 hours (Table 15, Example 7).
[16] abbreviates: 100 μM, approx. 16 hours (Table 16, Example 8 confirmation).

Turning to “403102 (antisense CCATAGAACAGCTTCACAGG; chemistry not given here) [compound 403102]”, the “Blood (g), tail bleeding” value in data set [1] (sc, 25 mg/kg) was determined as 0.06 g; in data set [1] (sc, 37.5 mg/kg), 0.06 g; in data set [1] (sc, 50 mg/kg) it was 0.10 g.
Take “422292 (antisense eG*eT*dT*d[5mC]*dT*dG*d[5mC]*dA*dG*dG*dA*dG*d[5mC]*dG*dG*e[5mC]*e[5mC]*eT*eA*eA) [compound 422292]”: in data set [2], the “% Inhibition of human Factor 7 mRNA levels” value (“% Inhibition” below) is 75%. Further, the “percent inhibition of Factor 7 mRNA, relative to untreated control cells” value is 13% in data set [3] (3.125 nM); 44% in data set [3] (12.5 nM); 63% in data set [3] (25 nM); 81% in data set [3] (50 nM); 83% in data set [3] (100 nM); 21% in data set [3]. Besides, the “percent inhibition of Factor 7 mRNA, relative to untreated control cells” value is 36% in data set [4] (setting [5]); 31% in data set [4] (setting [6]); 25% in data set [4] (setting [7]); 40% in data set [4] (setting [8]); 47% in data set [4] (setting [9]); 68% in data set [4] (setting [10]). For the same compound, the “percent inhibition of Factor 7 mRNA, relative to untreated control cells” value in data set [4] (setting [11]) stood at 59%; in data set [4] (setting [12]) it was 75%; in data set [4] (setting [13]), 75%; in data set [4] (setting [14]), 82%; in data set [4] (setting [15]) it was 86%; in data set [4] (setting [16]), 83%.
For the compound “422295 (antisense e[5mC]*eG*dA*dG*dT*dT*d[5mC]*dT*dG*d[5mC]*dA*dG*dG*dA*dG*e[5mC]*eG*eG*e[5mC]*e[5mC]) [compound 422295]”, the “% Inhibition” value in data set [2] was 74%. The “percent inhibition of Factor 7 mRNA, relative to untreated control cells” value in data set [3] (3.125 nM) was determined as 17%; in data set [3] (12.5 nM), 44%; in data set [3] (25 nM) it was 64%; in data set [3] (50 nM), 80%; in data set [3] (100 nM) it was 85%; in data set [3], 22%. The “percent inhibition of Factor 7 mRNA, relative to untreated control cells” value in data set [4] (setting [5]) came to 10%; in data set [4] (setting [7]), 8%; in data set [4] (setting [9]), 37%; in data set [4] (setting [11]) it was 58%; in data set [4] (setting [13]), 68%; in data set [4] (setting [15]), 80%.
With “422296 (antisense e[5mC]*e[5mC]*dG*dA*dG*dT*dT*d[5mC]*dT*dG*d[5mC]*dA*dG*dG*dA*eG*e[5mC]*eG*eG*e[5mC]) [compound 422296]”, the “% Inhibition” value in data set [2] was determined as 74%. Besides, the “percent inhibition of Factor 7 mRNA, relative to untreated control cells” value in data set [3] (3.125 nM) amounted to 21%; in data set [3] (12.5 nM), 39%; in data set [3] (25 nM), 67%; in data set [3] (50 nM), 78%; in data set [3] (100 nM), 82%; in data set [3], 27%. For the same compound, the “percent inhibition of Factor 7 mRNA, relative to untreated control cells” value in data set [4] (setting [5]) was 62%; in data set [4] (setting [6]), 47%; in data set [4] (setting [7]), 40%; in data set [4] (setting [8]), 44%; in data set [4] (setting [9]), 56%; in data set [4] (setting [10]), 70%. The “percent inhibition of Factor 7 mRNA, relative to untreated control cells” value in data set [4] (setting [11]) stood at 56%; in data set [4] (setting [12]) it was 78%; in data set [4] (setting [13]), 82%; in data set [4] (setting [14]) it was 80%; in data set [4] (setting [15]), 84%; in data set [4] (setting [16]) it was 82%.
For `COc1ccc(-n2nc(C(N)=O)c3c2C(=O)N(c2ccc(N4CCCCC4=O)cc2)CC3)cc1` [apixaban, Apixaban], the “Blood (g), tail bleeding” value was determined as 0.22 g in data set [1] (BALB/c, ip, 5 mg/kg, 30 min); 0.58 g in data set [1] (BALB/c, ip, 10 mg/kg, 30 min); 0.04 g in data set [1] (BALB/c, sc, 10 mg/kg, 30 min). In addition, the “bleeding compared to PBS treated mice” value in data set [1] (ip, 5 mg/kg) is recorded as “same amount of bleeding as PBS treated mice”; in data set [1] (ip, 10 mg/kg), “increased bleeding”; in data set [1] (sc, 10 mg/kg), “less bleeding than PBS mice”.
